Data taken from the supplement of paper PMC8617591.

Tests used:
[1] = system: Mycobacterium tuberculosis Erdman (autoluminescent); experiment: FIC50 (Loewe) at 50% inhibition (log2); higher = more antagonistic
Method: (§1)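 DiaMOND equipotent two-drug combination dose responses against autoluminescent M. tuberculosis Erdman in 8 in vitro models. Read-out is OD600, or luminescence for the intracellular and dormancy models, normalised to untreated wells. Hill-fit Einf, AUC25 and GRinf are potency metrics; FIC50 and FIC90 are Loewe-additivity fractional inhibitory concentrations, given as log2 (negative = synergy). Replicates are averaged.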

[2] = system: Mycobacterium tuberculosis Erdman (autoluminescent); experiment: FIC90 (Loewe) at 90% inhibition (log2); higher = more antagonistic
Method: as §1

[3] = system: Mycobacterium tuberculosis Erdman (autoluminescent); experiment: Einf, fitted maximum growth inhibition of combination (fraction); higher = stronger maximal inhibition
Method: as §1

[4] = system: Mycobacterium tuberculosis Erdman (autoluminescent); experiment: GRinf, maximum normalised growth rate inhibition (unitless (-1 to 1)); higher = less effect (negative = killing)
Method: as §1

[5] = system: Mycobacterium tuberculosis Erdman (autoluminescent); experiment: AUC25, normalised area under dose response up to IC25 (fraction (0-1)); higher = more potent at low dose
Method: as §1

[6] = system: Mycobacterium tuberculosis Erdman (autoluminescent); experiment: as above; remark: listed apart in the source
Method: (§2)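 DiaMOND dose responses (10 doses, 1.5- or 2-fold spacing, equipotent around IC90) of autoluminescent M. tuberculosis Erdman in 8 in vitro models. Read-out is OD600, or luminescence for the intracellular (J774) and dormancy models, background-subtracted and normalised to untreated wells. A 3-parameter Hill fit gives Einf and AUC25 (area to IC25 normalised by IC25); GRinf comes from a Hill fit of the Hafner normalised growth rate. Biological replicates passing QC are averaged. Single drugs only.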

[7] = system: Mycobacterium tuberculosis Erdman (autoluminescent); experiment: Einf, fitted maximum growth inhibition (fraction); higher = stronger maximal inhibition
Method: as §2

[8] = system: Mycobacterium tuberculosis Erdman (autoluminescent); experiment: GRinf, maximum normalised growth rate inhibition (unitless (-1 to 1)); higher = less effect (negative = killing); remark: listed apart in the source
Method: as §2

O=[N+]([O-])c1cn2c(n1)OC[C@@H](OCc1ccc(OC(F)(F)F)cc1)C2 [pretomanid] + NC(=O)c1cnccn1 [pyrazinamide]
Conditions | AUC25, [5] | Einf, [3] | FIC50, [1] | FIC90, [2] | GRinf, [4]
in vitro model: acidic pH 5.7, time point: constant (~7 days, model-specific) | 0.088 | 0.831 | -0.419 | -0.689 | -0.435
in vitro model: acidic pH 5.7, time point: terminal (~4-5 doublings, model-specific) | 0.0893 | 0.968 | -0.536 | -1.56 | -0.433
in vitro model: intracellular J774, time point: constant = terminal | – | 1 | – | -0.0198 | -0.358

Conditions | AUC25, [5] | Einf, [3] | FIC50, [1] | FIC90, [2] | GRinf, [4]
in vitro model: butyrate, time point: constant (~7 days, model-specific) | 0.115 | 0.869 | -0.24 | 1.15 | 0.144
in vitro model: butyrate, time point: terminal (~4-5 doublings, model-specific) | 0.109 | 0.936 | -0.0126 | 1.79 | 0.0694
in vitro model: cholesterol 0.05 mM, time point: constant (~7 days, model-specific) | 0.137 | 0.752 | – | – | -0.38
in vitro model: cholesterol 0.05 mM, time point: terminal (~4-5 doublings, model-specific) | 0.109 | 0.922 | 0.0466 | – | -0.194
in vitro model: cholesterol-high 0.2 mM, time point: constant (~7 days, model-specific) | 0.0725 | 0.886 | -0.0986 | – | -0.169
in vitro model: cholesterol-high 0.2 mM, time point: terminal (~4-5 doublings, model-specific) | 0.0665 | 0.998 | 0.341 | -0.19 | -0.445
in vitro model: dormancy (butyrate + nitrate, low O2), time point: constant (~7 days, model-specific) | 0.0996 | 0.936 | -0.574 | 0.149 | 0.076
in vitro model: dormancy (butyrate + nitrate, low O2), time point: terminal (~4-5 doublings, model-specific) | 0.0823 | 0.995 | -0.829 | 0.679 | -0.921
in vitro model: standard 7H9 glycerol, time point: constant = terminal | 0.067 | 0.915 | -0.256 | – | 0.0921
in vitro model: valerate, time point: constant (~7 days, model-specific) | 0.093 | 0.833 | 0.0923 | – | 0.163
in vitro model: valerate, time point: terminal (~4-5 doublings, model-specific) | 0.065 | 0.923 | -0.176 | -0.316 | 0.118

NC(=O)c1cnccn1 [pyrazinamide]
Conditions | AUC25, [6] | Einf, [7] | GRinf, [8]
in vitro model: acidic pH 5.7, time point: constant (~7 days, model-specific) | 0.12 | 0.74 | -0.0384
in vitro model: acidic pH 5.7, time point: terminal (~4-5 doublings, model-specific) | 0.124 | 0.881 | 0.0463
in vitro model: intracellular J774, time point: constant = terminal | – | 0.977 | -0.393

Conditions | AUC25, [6] | Einf, [7] | GRinf, [8]
in vitro model: butyrate, time point: constant (~7 days, model-specific) | 0.135 | 0.921 | -1
in vitro model: butyrate, time point: terminal (~4-5 doublings, model-specific) | 0.098 | 0.954 | -1
in vitro model: cholesterol 0.05 mM, time point: constant (~7 days, model-specific) | 0.154 | 0.394 | 0.111
in vitro model: cholesterol 0.05 mM, time point: terminal (~4-5 doublings, model-specific) | 0.142 | 0.803 | 0.0744
in vitro model: cholesterol-high 0.2 mM, time point: constant (~7 days, model-specific) | 0.0952 | 0.765 | -0.0736
in vitro model: cholesterol-high 0.2 mM, time point: terminal (~4-5 doublings, model-specific) | 0.0753 | 0.959 | -0.64
in vitro model: dormancy (butyrate + nitrate, low O2), time point: constant (~7 days, model-specific) | 0.0813 | 0.939 | -0.934
in vitro model: standard 7H9 glycerol, time point: constant = terminal | 0.104 | 0.291 | 0.582
in vitro model: valerate, time point: constant (~7 days, model-specific) | 0.0917 | 0.8 | -0.597
in vitro model: valerate, time point: terminal (~4-5 doublings, model-specific) | 0.0645 | 0.916 | -0.749

NC(=O)c1cnccn1 [pyrazinamide] + CO[C@H]1/C=C/O[C@@]2(C)Oc3c(C)c(O)c4c(O)c(c(/C=N/N5CCN(C6CCCC6)CC5)c(O)c4c3C2=O)NC(=O)/C(C)=C\C=C\[C@H](C)[C@H](O)[C@@H](C)[C@@H](O)[C@@H](C)[C@H](OC(C)=O)[C@@H]1C [rifapentine]
Conditions | AUC25, [5] | Einf, [3] | FIC50, [1] | FIC90, [2] | GRinf, [4]
in vitro model: acidic pH 5.7, time point: constant (~7 days, model-specific) | 0.0839 | 0.93 | -0.598 | – | -0.369
in vitro model: acidic pH 5.7, time point: terminal (~4-5 doublings, model-specific) | 0.0754 | 0.997 | -0.129 | -1.04 | -0.31
in vitro model: intracellular J774, time point: constant = terminal | – | 0.964 | – | -0.235 | -0.243

Conditions | AUC25, [5] | Einf, [3] | FIC50, [1] | FIC90, [2] | GRinf, [4]
in vitro model: butyrate, time point: constant (~7 days, model-specific) | 0.109 | 0.875 | 0.371 | 1.25 | 0.119
in vitro model: butyrate, time point: terminal (~4-5 doublings, model-specific) | 0.0943 | 0.941 | 0.431 | 1 | 0.108
in vitro model: cholesterol 0.05 mM, time point: constant (~7 days, model-specific) | 0.127 | 0.63 | – | – | 0.0214
in vitro model: cholesterol 0.05 mM, time point: terminal (~4-5 doublings, model-specific) | 0.105 | 0.896 | 0.52 | – | -0.284
in vitro model: cholesterol-high 0.2 mM, time point: constant (~7 days, model-specific) | 0.0949 | 0.922 | 0.664 | – | -0.246
in vitro model: cholesterol-high 0.2 mM, time point: terminal (~4-5 doublings, model-specific) | 0.0793 | 1 | 1.19 | 0.905 | -0.711
in vitro model: dormancy (butyrate + nitrate, low O2), time point: constant (~7 days, model-specific) | 0.0917 | 0.902 | -0.609 | 1.09 | 0.258
in vitro model: dormancy (butyrate + nitrate, low O2), time point: terminal (~4-5 doublings, model-specific) | 0.0455 | 0.982 | -0.14 | -0.0574 | -0.142
in vitro model: standard 7H9 glycerol, time point: constant = terminal | 0.0487 | 0.866 | -0.0174 | – | 0.219
in vitro model: valerate, time point: constant (~7 days, model-specific) | 0.0445 | 0.684 | 0.675 | – | 0.299
in vitro model: valerate, time point: terminal (~4-5 doublings, model-specific) | 0.0349 | 0.892 | 0.752 | 0.534 | 0.155
